Measurements: ChEMBL document CHEMBL1126309, “Aliphatic propargylamines: potent, selective, irreversible monoamine oxidase B inhibitors” (J Med Chem, 1992)

How the values were obtained:
[1] = molecular target: T1, Amine oxidase [flavin-containing] B (Rattus norvegicus, UniProt P19643); assay: Inhibition of Monoamine oxidase B of rat liver mitochondrial membranes; format: cell membranes, Membrane
T1 sequence (P19643 whole entry): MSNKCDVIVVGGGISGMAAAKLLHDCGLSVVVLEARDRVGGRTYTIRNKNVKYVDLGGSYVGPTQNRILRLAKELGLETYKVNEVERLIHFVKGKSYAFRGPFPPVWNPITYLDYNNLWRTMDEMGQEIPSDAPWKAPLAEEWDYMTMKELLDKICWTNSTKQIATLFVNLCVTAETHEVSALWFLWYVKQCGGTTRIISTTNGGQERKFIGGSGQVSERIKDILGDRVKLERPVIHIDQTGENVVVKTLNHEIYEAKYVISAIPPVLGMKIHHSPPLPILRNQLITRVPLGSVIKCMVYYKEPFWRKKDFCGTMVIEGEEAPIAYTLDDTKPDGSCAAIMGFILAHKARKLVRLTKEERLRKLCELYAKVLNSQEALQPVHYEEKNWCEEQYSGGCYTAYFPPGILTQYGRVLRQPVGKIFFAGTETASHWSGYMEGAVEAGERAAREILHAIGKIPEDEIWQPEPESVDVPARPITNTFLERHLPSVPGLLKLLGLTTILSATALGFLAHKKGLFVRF

[2] = molecular target: T2, Amine oxidase [flavin-containing] A (Rattus norvegicus, UniProt P21396); assay: Inhibition of Monoamine oxidase A of rat liver mitochondrial membranes; format: cell membranes, Membrane
T2 sequence (P21396 whole entry): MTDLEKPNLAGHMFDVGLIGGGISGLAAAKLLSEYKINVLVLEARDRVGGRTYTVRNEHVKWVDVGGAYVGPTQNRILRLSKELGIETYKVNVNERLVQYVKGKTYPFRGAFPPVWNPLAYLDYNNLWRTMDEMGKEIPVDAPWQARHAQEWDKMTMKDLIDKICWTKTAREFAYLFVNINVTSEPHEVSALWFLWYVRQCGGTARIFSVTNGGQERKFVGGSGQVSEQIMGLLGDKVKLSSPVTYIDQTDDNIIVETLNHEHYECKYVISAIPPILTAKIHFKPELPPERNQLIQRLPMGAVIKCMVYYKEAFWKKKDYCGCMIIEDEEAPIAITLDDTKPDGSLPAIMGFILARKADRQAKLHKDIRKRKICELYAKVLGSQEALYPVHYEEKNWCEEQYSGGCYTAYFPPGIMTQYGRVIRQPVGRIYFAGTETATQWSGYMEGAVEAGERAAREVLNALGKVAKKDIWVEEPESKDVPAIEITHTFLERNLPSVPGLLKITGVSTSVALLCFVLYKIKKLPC

Mus musculus [3] = assay: MAO activities in the mouse brain after intraperitoneal administration of compound towards 5-HT (5 x 10e-4 M) substrate; format: functional; settings: ip, read-out: ID50 (the source's name)
Mus musculus [4] = assay: MAO activities in the mouse brain after intraperitoneal administration of compound towards PE (1.9 x 10e-5 M) substrate; format: functional; settings: ip, read-out: ID50 (the source's name)
Mus musculus [5] = assay: MAO activities in the mouse brain after oral administration of compound towards 5-HT (5 x 10e-4 M) substrate; format: functional
Mus musculus [6] = assay: MAO activities in the mouse brain after oral administration of compound towards PE (1.9 x 10e-5 M) substrate; format: functional
Rattus norvegicus = assay: MAO activity evaluated in dissected forebrain of rat after 2 hr of administration; format: functional
Mus musculus [7] = assay: Compound was evaluated for MAO-A activity after 9 day of chronic peritoneal administration in mouse fore brain at dose of 0.2 mg/kg; format: functional
Mus musculus [8] = assay: Compound was evaluated for MAO-A activity after 9 days of chronic peritoneal administration in mouse fore brain at dose of 0.05 mg/kg; format: functional
Mus musculus [9] = assay: Compound was evaluated for MAO-B activity after 1 day of chronic peritoneal administration in mouse fore brain at dose of 0.05 mg/kg; format: functional
Mus musculus [10] = assay: Compound was evaluated for MAO-B activity after 1 day of chronic peritoneal administration in mouse fore brain at dose of 0.2 mg/kg; format: functional
Mus musculus [11] = assay: Compound was evaluated for MAO-B activity after 20 day of chronic peritoneal administration in mouse fore brain at dose of 0.2 mg/kg; format: functional
Mus musculus [12] = assay: Compound was evaluated for MAO-B activity after 20 days of chronic peritoneal administration in mouse fore brain at dose of 0.05 mg/kg; format: functional
Mus musculus [13] = assay: Compound was evaluated for MAO-A activity after 1 day of chronic peritoneal administration in mouse fore brain at dose of 0.05 mg/kg; format: functional
Mus musculus [14] = assay: Compound was evaluated for MAO-A activity after 1 day of chronic peritoneal administration in mouse fore brain at dose of 0.2 mg/kg; format: functional
Mus musculus [15] = assay: Compound was evaluated for MAO-A activity after 20 day of chronic peritoneal administration in mouse fore brain at dose of 0.2 mg/kg; format: functional
Mus musculus [16] = assay: Compound was evaluated for MAO-A activity after 20 days of chronic peritoneal administration in mouse fore brain at dose of 0.05 mg/kg; format: functional
Mus musculus [17] = assay: Compound was evaluated for MAO-B activity after 9 day of chronic peritoneal administration in mouse fore brain at dose of 0.2 mg/kg; format: functional
Mus musculus [18] = assay: Compound was evaluated for MAO-B activity after 9 days of chronic peritoneal administration in mouse fore brain at dose of 0.05 mg/kg; format: functional
Monoamine oxidase [19] = molecular target: T3, Monoamine oxidase (Rattus norvegicus, UniProt P19643+P21396); format: protein assay
T3 sequence (P19643 whole entry): T1 sequence (P19643 whole entry)
T3 sequence (P21396 whole entry): T2 sequence (P21396 whole entry)

Mus musculus [20] = assay: Compound was evaluated for MAO-B activity after 1 day of chronic peritoneal administration in mouse fore brain at dose of 0.25 mg/kg; format: functional
Mus musculus [21] = assay: Compound was evaluated for MAO-A activity after 1 day of chronic peritoneal administration in mouse fore brain at dose of 0.25 mg/kg; format: functional
Mus musculus [22] = assay: Compound was evaluated for MAO-A activity after 13 days of chronic peritoneal administration in mouse fore brain at dose of 0.25 mg/kg; format: functional
Mus musculus [23] = assay: Compound was evaluated for MAO-B activity after 13 days of chronic peritoneal administration in mouse fore brain at dose of 0.25 mg/kg; format: functional
Monoamine oxidase [24] = molecular target: T3, Monoamine oxidase; assay: Compound was evaluated for the inhibition of deamination of dopamine (DA) by Monoamine oxidase at 5 x 10e-4 M; format: protein assay
Mus musculus [25] = assay: Compound was evaluated for MAO-A activity after 21 days of chronic peritoneal administration in mouse fore brain at dose of 2 mg/kg; format: functional
Mus musculus [26] = assay: Compound was evaluated for MAO-B activity after 1 days of chronic peritoneal administration in mouse fore brain at dose of 2 mg/kg; format: functional
Mus musculus [27] = assay: Compound was evaluated for MAO-B activity after 10 days of chronic peritoneal administration in mouse fore brain at dose of 2 mg/kg; format: functional
Mus musculus [28] = assay: Compound was evaluated for MAO-B activity after 21 days of chronic peritoneal administration in mouse fore brain at dose of 2 mg/kg; format: functional
Mus musculus [29] = assay: Compound was evaluated for MAO-A activity after 10 days of chronic peritoneal administration in mouse fore brain at dose of 2 mg/kg; format: functional
Mus musculus [30] = assay: Compound was evaluated for MAO-A activity after 1 days of chronic peritoneal administration in mouse fore brain at dose of 2 mg/kg; format: functional

Row | SMILES | IC50 [1] | IC50 [2] | ED50 (Mus musculus [3]) | ED50 (Mus musculus [4]) | Relative activity (Mus musculus [5]) | Relative activity (Mus musculus [6]) | ED50 (Rattus norvegicus) | other results
1 | C#CCN(C)CCCCC(=O)OCC.O=C(O)C(=O)O | Not Active | Not Active | – | – | – | – | – | –
2 | C#CCN(C)CCC(=O)O.O=C(O)C(=O)O | Not Active | Not Active | – | – | – | – | – | –
3 | C#CCN(C)CCCCC.O=C(O)C(=O)O | 0.37 µM | 120 µM | > 218 µmol/kg | 6.8 µmol/kg | 97% | 72% | – | –
4 | C#CCN(C)CCCC.Cl | 1.4 µM | 98 µM | 478 µmol/kg | 11.2 µmol/kg | 98% | 67% | 141 µmol/kg | –
5 | C#CCN(C)C(C)CCCC.Cl (centres undefined) | 0.082 µM | 90 µM | 262 µmol/kg | 1.2 µmol/kg | – | – | 5.1 µmol/kg | Relative activity (Mus musculus [7]): 103%; Relative activity (Mus musculus [8]): 95%; Relative activity (Mus musculus [9]): 55%; Relative activity (Mus musculus [10]): 36%; Relative activity (Mus musculus [11]): 27%; Relative activity (Mus musculus [12]): 37%; Relative activity (Mus musculus [13]): 104%; Relative activity (Mus musculus [14]): 103%; Relative activity (Mus musculus [15]): 81%; Relative activity (Mus musculus [16]): 76%; Relative activity (Mus musculus [17]): 35%; Relative activity (Mus musculus [18]): 41%
6 | C#CCN(C)C(C)CCCCC.Cl (centres undefined) | 0.21 µM | 19 µM | 127 µmol/kg | 2.6 µmol/kg | 99% | 39% | – | IC50 (Monoamine oxidase [19]): 0.32 µM
7 | C#CCN(C)CCCCCCO.Cl | 120 µM | Not Active | – | – | – | – | – | –
8 | C#CCN(C)C(C)CCCCCCCCCC.Cl (centres undefined) | 0.039 µM | 1.9 µM | 223 µmol/kg | 15.5 µmol/kg | 107% | 64% | – | IC50 (Monoamine oxidase [19]): 0.28 µM
9 | C#CCN(C)C(C)CCCCCCCC.Cl (centres undefined) | 0.18 µM | 3.9 µM | 144 µmol/kg | 15 µmol/kg | 97% | 104% | 171 µmol/kg | Relative activity (Mus musculus [20]): 94%; Relative activity (Mus musculus [21]): 85%; Relative activity (Mus musculus [22]): 79%; IC50 (Monoamine oxidase [19]): 0.21 µM; Relative activity (Mus musculus [23]): 70%
10 | C#CCN(C)C(C)CCCCO.Cl (centres undefined) | 130 µM | Not Active | – | – | – | – | – | –
11 | C#CCNC.Cl | Not Active | Not Active | – | – | – | – | – | –
12 | C#CCN(C)C(CC)CC | 0.18 µM | 2.4 µM | 52.9 µmol/kg | 2.7 µmol/kg | – | – | – | –
13 | C#CCN(C)C(C)C.Cl | 19 µM | Not Active | – | – | – | – | – | IC50 (Monoamine oxidase [24]): 28 µM
14 | C#CCN(C)C(C)CCC(=O)OCC.Cl (centres undefined) | Not Active | Not Active | – | – | – | – | – | –
15 | C#CCN(C)CCCCCCC.Cl | – | 38 µM | > 491 µmol/kg | 75.6 µmol/kg | 123% | 118% | – | –
16 | C#CCN(C)C(C)CCC.Cl.O=C(O)C(=O)O (centres undefined) | 0.18 µM | 12 µM | 114 µmol/kg | 1.7 µmol/kg | 89% | 31% | 5.2 µmol/kg | Relative activity (Mus musculus [25]): 31%; Relative activity (Mus musculus [20]): 94%; Relative activity (Mus musculus [26]): 40%; Relative activity (Mus musculus [27]): 19%; Relative activity (Mus musculus [28]): 18%; Relative activity (Mus musculus [21]): 102%; Relative activity (Mus musculus [29]): 49%; Relative activity (Mus musculus [22]): 89%; IC50 (Monoamine oxidase [19]): 5.6 µM; Relative activity (Mus musculus [23]): 35%; Relative activity (Mus musculus [30]): 91%
17 | C#CCN(C)C(C)CC (centres undefined) | – | – | 69.7 µmol/kg | 4.2 µmol/kg | – | – | 31 µmol/kg | –
18 | C#CCN(C)[C@H](C)Cc1ccccc1 [SELEGILINE] | – | – | 143 µmol/kg | 2.3 µmol/kg | – | – | 26.3 µmol/kg | –
